Patent US11685716B2, “Plant growth inhibiting agent, and plant growth inhibiting method using same” (NATIONAL UNIVERSITY CORPORATION KUMAMOTO UNIVERSITY, priority 2017, dated 2023)

Tests used:
[1] = tested on: thale cress; assay: Plant growth inhibition index, thale cress on agar medium in test tube (Evaluation 8, 9); format: in vivo, thale cress (Col-0, wild-type strain); set-up: key: 0: No effect; 1: Growth of the root part was inhibited 50% or less compared with non-treated area.; 2: Growth of the root part was inhibited 50% or more compared with non-treated area.; 3: Growth of the root part was substantially inhibited.; 4: Germination was inhibited; conditions: Concentration 200 μM, 8 days (Evaluation 9, Table 2)
Experimental: 0.44% (w/v) Mixed salts for Murashige and Skoog medium (SIGMA), 1% (w/v) sucrose, and 0.05% (w/v) MES were mixed, and pH of the solution was adjusted to pH 5.7 with potassium hydroxide. 1.5% (w/v) Agar was added to the mixture, which was sterilized at 120° C. in an autoclave for 20 minutes. The test compound and dimethylformamide containing 1.5% of polyoxyethylenesorbitan monolaurate for a control experiment, were added at this stage and blended. In addition, the compound was used by adjusting an addition concentration to 200 μM. Four ml each of the medium was dispensed in sterile glass test tube ([…] RIKA GLASS CO., LTD.) to prepare agar medium.
As a plant material, Col-0, which is a wild-type strain of thale cress, was used.
Seeds, after their surfaces were sterilized, were planted on the agar medium, and the growth of the plant was carried out in a plant incubator (CFH-405) under the conditions of an illuminance of 3 at 23° C. with constant light. The plants on the agar medium were grown for 8 days in the chamber.
The plant growth inhibition effect of the compounds was evaluated by conversion to indexes according to the following investigation criteria.

[2] = tested on: Japanese bristlegrass; assay: Spray treatment to stems and leaves, killing weed index (Evaluation 10); format: in vivo; conditions: 2000 g active ingredient per hectare, two weeks later
Experimental: (§1) POA allyl phenyl ether (4.1 parts by weight), POE-POP glycol (1 part by weight), POE sorbitan laurate (0.8 parts by weight), glycerin (2.6 parts by weight), dimethylformamide (65.9 parts by weight), N-methylpyrrolidone (5.1 parts by weight), cyclohexanone (15.4 parts by weight), and aromatic hydrocarbon (5.1 parts by weight) were mixed and dissolved to prepare an emulsion. The compounds of the present invention (4 mg) were dissolved in this emulsion (100 μL) to prepare a test emulsion. In addition, POA means “polyoxyalkylene”, POE means “polyoxyethylene”, and POP means “polyoxypropylene.”
(§2) Four hundred μL of the above test emulsion was diluted with 7600 μL of water to use as a test spray liquid.
(§3) Further, 400 μL of the above test emulsion was diluted with 1600 μL of a 1% Tween20 aqueous solution to use as a spray liquid for a small amount spray test.
(§4) For a comparative spray liquid, 53 μL of a 30% pendimethalin emulsion (Gogosan emulsion: manufactured by BASF Japan) as a control pesticides was diluted with 7947 μL of water. Further, for a comparative spray liquid for a small amount spray test, 53 μL of the 30% pendimethalin emulsion was diluted with 1947 μL of water.
(§5) A 150 cm^2 pot was filled with a soil, seeds of each purple amaranth, Japanese bristlegrass, southern crabgrass, and velvet leaf were sown on the surface layer, lightly covered with a soil and grown in a greenhouse. When each plant grew to a plant height of 2 to 9 cm, the test spray liquid was sprayed to the stem and leaf parts with a small spraying machine such that an active ingredient amount was 2000 g per hectare and a sprayed liquid amount was 1000 L per hectare.
(§6) Similarly, the test spray liquid for a small amount spray test was sprayed to the stem and leaf parts with a small spraying machine such that an active ingredient amount was 2000 g per hectare and a sprayed liquid amount was 250 L per hectare.
(§7) Two weeks later, the above-ground grass weight in non-treated areas and the above-ground grass weight in treated areas, by the weed, were measured to calculate a killing weed rate by the following calculating formula.
(§8) (a) Calculating Formula of Weeding Rate Killing weed rate (%)=(above-ground grass weight in non-treated area−above-ground grass weight in treated area)/(above-ground grass weight in non-treated area)×100 (b) Killing Weed Indexes
(§9) The obtained killing weed rates were evaluated, such that a killing weed index was “10” when a killing weed rate is 100%, as “9” when a killing weed rate is 99% to 90%, “8” when a killing weed rate is 89% to 80%, “7” when a killing weed rate is 79% to 70%, “6” when a killing weed rate is 69% to 60%, “5” when a killing weed rate is 59% to 50%, “4” when a killing weed rate is 49% to 40%, “3” when a killing weed rate is 39% to 30%, “2” when a killing weed rate is 29% to 20%, “1” when a killing weed rate is 19% to 10%, and “0” when a killing weed rate is 9% to 0%.

[3] = tested on: purple amaranth; assay: as above; format: in vivo; conditions: 2000 g active ingredient per hectare, two weeks later
Experimental: as §1, §2, §3, §4, §5, §6, §7, §8, §9

[4] = tested on: southern crabgrass; assay: as above; format: in vivo; conditions: 2000 g active ingredient per hectare, two weeks later
Experimental: as §1, §2, §3, §4, §5, §6, §7, §8, §9

[5] = tested on: velvet leaf; assay: as above; format: in vivo; conditions: 2000 g active ingredient per hectare, two weeks later
Experimental: as §1, §2, §3, §4, §5, §6, §7, §8, §9

[6] = tested on: Japanese millet; assay: Seed treatment, plant growth inhibition index (Evaluation 11); format: in vivo; set-up: key: 0: No effect; 1: Growth of the root part was inhibited 50% or less compared with non-treated area.; 2: Growth of the root part was inhibited 50% or more compared with non-treated area.; 3: Growth of the root part was substantially inhibited.; 4: Germination was inhibited; conditions: 200 μM, 6 days (9a, 9b: 7 days)
Experimental: (§10) The compound of the present invention (2 mg) was dissolved in a 1.5% Tween dimethylformamide solution (100 μL) to use as a test chemical solution.
(§11) Eight mL of sterilized water was poured to a cherry cup (100Φ×45 mm) lined with a filter paper, subsequently 81.1 μL of the sterilized water was removed, and 81.1 μL of the test chemical solution was added such that a final concentration of the compound was 800 μM.
(§12) Further, cherry cups were similarly prepared such that a final concentration of the compound was 200 μM.
(§13) Seeds (Japanese millet: 3 grains, velvet leaf: 6 grains, Ragweed: 8 grains, morning glory: 2 grains) were planted on the filter paper in the cherry cups, followed by growing the plants in a thermostatic chamber at 25° C. under a light-dark cycle in which a light period is 12 hours and a dark period is 12 hours for 6 days.
(§14) In addition, with regards to the compound (9a) and the compound (9b), the plants were tested for 7 days.
(§15) Plant growth inhibition effects of the compounds were evaluated by conversion to indexes according to the following investigation criteria.

[7] = tested on: Ragweed; assay: as above; format: in vivo; set-up: key: 0: No effect; 1: Growth of the root part was inhibited 50% or less compared with non-treated area.; 2: Growth of the root part was inhibited 50% or more compared with non-treated area.; 3: Growth of the root part was substantially inhibited.; 4: Germination was inhibited; conditions: 200 μM, 6 days (9a, 9b: 7 days)
Experimental: as §10, §11, §12, §13, §14, §15

[8] = tested on: morning glory; assay: as above; format: in vivo; set-up: key: 0: No effect; 1: Growth of the root part was inhibited 50% or less compared with non-treated area.; 2: Growth of the root part was inhibited 50% or more compared with non-treated area.; 3: Growth of the root part was substantially inhibited.; 4: Germination was inhibited; conditions: 200 μM, 6 days (9a, 9b: 7 days)
Experimental: as §10, §11, §12, §13, §14, §15

[9] = tested on: velvet leaf; assay: as above; format: in vivo; set-up: key: 0: No effect; 1: Growth of the root part was inhibited 50% or less compared with non-treated area.; 2: Growth of the root part was inhibited 50% or more compared with non-treated area.; 3: Growth of the root part was substantially inhibited.; 4: Germination was inhibited; conditions: 200 μM, 6 days (9a, 9b: 7 days)
Experimental: as §10, §11, §12, §13, §14, §15

[10] = sprayed liquid amount 1000 L/ha

SMILES: CCCCCOn1cc(-c2ccccc2)cc1C(=O)O [Compound 9a, 1-Pentyloxy-4-phenyl-1H-pyrrole-2-carboxylic acid]
- Index [1]: 4
- killing weed index, Japanese bristlegrass ([2]; sprayed liquid amount 250 L/ha): 3 (“3” when a killing weed rate is 39% to 30%)
- killing weed index, Purple amaranth ([3]; sprayed liquid amount 250 L/ha): 8 (“8” when a killing weed rate is 89% to 80%)
- killing weed index, Southern crabgrass ([4]; sprayed liquid amount 250 L/ha): 2 (“2” when a killing weed rate is 29% to 20%)
- killing weed index, Velvet leaf ([5]; sprayed liquid amount 250 L/ha): 3 (“3” when a killing weed rate is 39% to 30%)
- plant growth inhibition index, Japanese millet [6]: 3 (Growth of the stem and leave parts was inhibited 30% or more compared with non-treated area, or growth of the only root part was inhibited 60% or more compared with non-treated area.)
- plant growth inhibition index, Ragweed [7]: 0
- plant growth inhibition index, Morning glory [8]: 0
- plant growth inhibition index, Velvet leaf [9]: 0

SMILES: CCCCCCCCCOn1cccc1C(=O)NCc1ccccc1 [Compound 9e]
- Index [1]: 2 (Growth of the root part was inhibited 50% or more compared with non-treated area.)
- killing weed index, Japanese bristlegrass ([2]; sprayed liquid amount 250 L/ha): 2 (“2” when a killing weed rate is 29% to 20%)
- killing weed index, Japanese bristlegrass [2, 10]: 2 (“2” when a killing weed rate is 29% to 20%)
- killing weed index, Purple amaranth ([3]; sprayed liquid amount 250 L/ha): 0 (“0” when a killing weed rate is 9% to 0%)
- killing weed index, Purple amaranth [3, 10]: 0 (“0” when a killing weed rate is 9% to 0%)
- killing weed index, Southern crabgrass ([4]; sprayed liquid amount 250 L/ha): 2 (“2” when a killing weed rate is 29% to 20%)
- killing weed index, Southern crabgrass [4, 10]: 2 (“2” when a killing weed rate is 29% to 20%)
- killing weed index, Velvet leaf ([5]; sprayed liquid amount 250 L/ha): 2 (“2” when a killing weed rate is 29% to 20%)
- killing weed index, Velvet leaf [5, 10]: 0 (“0” when a killing weed rate is 9% to 0%)
- plant growth inhibition index, Japanese millet [6]: 3 (Growth of the stem and leave parts was inhibited 30% or more compared with non-treated area, or growth of the only root part was inhibited 60% or more compared with non-treated area.)
- plant growth inhibition index, Ragweed [7]: 0
- plant growth inhibition index, Morning glory [8]: 0
- plant growth inhibition index, Velvet leaf [9]: 0

SMILES: CCCCCCCCCOn1cccc1C(=O)NC [Compound 9d]
- Index [1]: 3
- killing weed index, Japanese bristlegrass ([2]; sprayed liquid amount 250 L/ha): 2 (“2” when a killing weed rate is 29% to 20%)
- killing weed index, Japanese bristlegrass [2, 10]: 1 (“1” when a killing weed rate is 19% to 10%)
- killing weed index, Purple amaranth ([3]; sprayed liquid amount 250 L/ha): 0 (“0” when a killing weed rate is 9% to 0%)
- killing weed index, Purple amaranth [3, 10]: 0 (“0” when a killing weed rate is 9% to 0%)
- killing weed index, Southern crabgrass ([4]; sprayed liquid amount 250 L/ha): 3 (“3” when a killing weed rate is 39% to 30%)
- killing weed index, Southern crabgrass [4, 10]: 2 (“2” when a killing weed rate is 29% to 20%)
- killing weed index, Velvet leaf ([5]; sprayed liquid amount 250 L/ha): 3 (“3” when a killing weed rate is 39% to 30%)
- killing weed index, Velvet leaf [5, 10]: 0 (“0” when a killing weed rate is 9% to 0%)
- plant growth inhibition index, Japanese millet [6]: 3 (Growth of the stem and leave parts was inhibited 30% or more compared with non-treated area, or growth of the only root part was inhibited 60% or more compared with non-treated area.)
- plant growth inhibition index, Ragweed [7]: 3 (Growth of the stem and leave parts was inhibited 30% or more compared with non-treated area, or growth of the only root part was inhibited 60% or more compared with non-treated area.)
- plant growth inhibition index, Morning glory [8]: 0
- plant growth inhibition index, Velvet leaf [9]: 0

SMILES: CCCCCCCCCOn1cc(Cl)cc1C(=O)O [Compound 9b]
- Index [1]: 3
- killing weed index, Japanese bristlegrass ([2]; sprayed liquid amount 250 L/ha): 3 (“3” when a killing weed rate is 39% to 30%)
- killing weed index, Purple amaranth ([3]; sprayed liquid amount 250 L/ha): 10 (“10” when a killing weed rate is 100%)
- killing weed index, Southern crabgrass ([4]; sprayed liquid amount 250 L/ha): 2 (“2” when a killing weed rate is 29% to 20%)
- killing weed index, Velvet leaf ([5]; sprayed liquid amount 250 L/ha): 2 (“2” when a killing weed rate is 29% to 20%)
- plant growth inhibition index, Japanese millet [6]: 0
- plant growth inhibition index, Ragweed [7]: 0
- plant growth inhibition index, Morning glory [8]: 3 (Growth of the stem and leave parts was inhibited 30% or more compared with non-treated area, or growth of the only root part was inhibited 60% or more compared with non-treated area.)
- plant growth inhibition index, Velvet leaf [9]: 0

SMILES: CCCCCCCCCOn1cccc1C(=O)NCC(F)(F)F [Compound 9f]
- Index [1]: 2 (Growth of the root part was inhibited 50% or more compared with non-treated area.)
- killing weed index, Japanese bristlegrass ([2]; sprayed liquid amount 250 L/ha): 2 (“2” when a killing weed rate is 29% to 20%)
- killing weed index, Japanese bristlegrass [2, 10]: 1 (“1” when a killing weed rate is 19% to 10%)
- killing weed index, Purple amaranth ([3]; sprayed liquid amount 250 L/ha): 0 (“0” when a killing weed rate is 9% to 0%)
- killing weed index, Purple amaranth [3, 10]: 0 (“0” when a killing weed rate is 9% to 0%)
- killing weed index, Southern crabgrass ([4]; sprayed liquid amount 250 L/ha): 2 (“2” when a killing weed rate is 29% to 20%)
- killing weed index, Southern crabgrass [4, 10]: 3 (“3” when a killing weed rate is 39% to 30%)
- killing weed index, Velvet leaf ([5]; sprayed liquid amount 250 L/ha): 0 (“0” when a killing weed rate is 9% to 0%)
- killing weed index, Velvet leaf [5, 10]: 0 (“0” when a killing weed rate is 9% to 0%)
- plant growth inhibition index, Japanese millet [6]: 3 (Growth of the stem and leave parts was inhibited 30% or more compared with non-treated area, or growth of the only root part was inhibited 60% or more compared with non-treated area.)
- plant growth inhibition index, Ragweed [7]: 5 (Growth of the stem and leave parts was inhibited 50% or more compared with non-treated area, or growth of the only root part was inhibited 100% or more compared with non-treated area.)
- plant growth inhibition index, Morning glory [8]: 3 (Growth of the stem and leave parts was inhibited 30% or more compared with non-treated area, or growth of the only root part was inhibited 60% or more compared with non-treated area.)
- plant growth inhibition index, Velvet leaf [9]: 0
